Literature values as cited in US6953790B2, “CGRP receptor antagonists” (Merck & Co., Inc., priority 2003, dated 2005).
No end group written: not given here.

How the values were obtained:
facial blood flow [1] = conditions: marmoset, electrical stimulation of the trigeminal ganglion (Doods et al. 2000)
CGRP receptor = target: T1, CGRP receptor (Homo sapiens, UniProt O60894+Q16602); conditions: clinical trials (Olesen et al. 2004)
T1 construct: host or cells: human migraine patients (in vivo)

middle meningeal artery = conditions: rats, electrical stimulation of the dura mater, prior administration (Williamson et al. 1997)
facial blood flow [2] = conditions: rat, trigeminal ganglion stimulation (Escott et al. 1995)

T1 sequence (Q16602 23-461): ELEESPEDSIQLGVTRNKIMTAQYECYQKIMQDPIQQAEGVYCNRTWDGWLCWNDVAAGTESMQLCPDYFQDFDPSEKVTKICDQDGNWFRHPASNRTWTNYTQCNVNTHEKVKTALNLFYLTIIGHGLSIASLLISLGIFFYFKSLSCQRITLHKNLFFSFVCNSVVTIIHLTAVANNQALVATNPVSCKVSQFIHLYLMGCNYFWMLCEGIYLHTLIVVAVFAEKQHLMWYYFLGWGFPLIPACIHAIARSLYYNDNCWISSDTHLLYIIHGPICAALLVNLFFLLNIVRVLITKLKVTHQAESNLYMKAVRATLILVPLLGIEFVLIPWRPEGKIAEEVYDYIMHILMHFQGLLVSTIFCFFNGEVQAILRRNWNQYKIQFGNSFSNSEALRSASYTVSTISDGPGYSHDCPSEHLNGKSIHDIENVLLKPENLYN
T1 sequence (O60894 27-148): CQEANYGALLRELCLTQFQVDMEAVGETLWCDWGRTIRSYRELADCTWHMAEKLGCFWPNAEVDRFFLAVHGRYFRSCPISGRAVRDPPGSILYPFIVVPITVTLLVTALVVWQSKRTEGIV

Row | Molecule | effect on increase in facial blood flow (facial blood flow [1]) | efficacy in acute attacks of migraine (CGRP receptor) | effect on increase in diameter of the middle meningeal artery (middle meningeal artery) | effect on increased facial blood flow (facial blood flow [2])
1 | NCCCC[C@H](NC(=O)[C@@H](Cc1cc(Br)c(O)c(Br)c1)NC(=O)N1CCC(N2Cc3ccccc3NC2=O)CC1)C(=O)N1CCN(c2ccncc2)CC1 [BIBN4096BS] | blocked | effective in treating acute attacks of migraine |  | 
2 | CGRP(8-37): "a peptide CGRP antagonist" (VTHRLAGLLSRSGGVVKNNFVPTNVGSKAF; ends and bridges not checked; UniProt P06881 90-119, looked up, fragment) |  |  | blocked | inhibited
